Measurements: patent US20170029841A1, “METHODS AND COMPOSITIONS FOR SELECTIVE REGULATION OF PROTEIN EXPRESSION” (priority 2015, published 2017)

B1: SEQ ID NO: 15: recombinant mts-siRNA target element sequence (nucleic acid)
DNA: TCGTCCAAACGTGACCGTGTGGCTAGAAGCAGAGGATGGCGATATGCACGTTATGCTTTCCTAGACTCTCACTGTAGTGG
modifications: chemistry not fully specified; the letters are possibly those of the target site
B2: SEQ ID NO: 9: reverse complement of mts-siRNA target element, 99% identity to positions 191 to 490 of cDNA SEQ ID NO: 22 (nucleic acid)
DNA: GGACAACAAGCACCTTCTTGCCTTGCAAGGCCTCCCTTCCCTATGGTAGCCACTTGAGTGGATGACTTCACCTTAAAGCTATTGATTCCCTAAGTGCCAGACATAATAGGCTATACATTCTCTCTGGTGGCAACAATGAGCCATTTTGGTTGGTGTGGTAGTCTATTATTGAGTTTTTTTTGGCACCGTACTCCCATGGAGAGTAGAAGACAAACTCTTCACCGTTGTAGTCGTTGATGGTATTGGTGGTGACGACATCCTTGGTGTGCATGCACTGGTGAGTCACTGTTGTACTCGGCG
modifications: Zea mays
B3: SEQ ID NO: 16: recombinant mts-siRNA target element sequence (nucleic acid)
DNA: GACAACAAGCACCTTCTTGCCTTGCAGTATTGGTGGTGACGACATCCTTGGTGTGCATGCACTGGTGAGTCACTGTTGTACGTGATAACTTCTATGCTGGCTGTGATTGCTAGTTGAAGAAAAGAATAGATATGGTGACATCAAGTTTCCACTGCGTGACGCCAACGTGCATATCGCCATCCTCTGCTACGAGGGAATGTCATTGGTCGATGAGATGAGGGTGAATCGGATGTTGAGGTGGCACGATAGTTAAGGCGCAAGGGT
B4: SEQ ID NO: 13: recombinant mts-siRNA target element sequence (nucleic acid)
DNA: ACGTGATAACTTCTATGCTGGCTGTGATTGCTAGTTGAAGAAAAGAATAGATATGGTGACATCAAGTTTCCACTGCGTGACG
modifications: chemistry not fully specified; the letters are possibly those of the target site
B5: SEQ ID NO: 2: mts-siRNA target element, single nucleotide change (T69A) relative to SEQ ID NO: 1 (nucleic acid)
DNA: AGACGACGACCGTGCATGGTGATGAATCACAGACGACGAACACGCATGTCGCATCGCCGTCCTCTTTGAATCACACAGCATCACCTTCTTCGCTCTACTACTCCCCCGAGCAATCACCGACCAATAACACCAACCATCAACCTCCCCCGTCGCCGCCGCCTTCACCGTCCTCCCCTCACACCATAGAACTGCAAATGTCCG
B6: SEQ ID NO: 14: recombinant mts-siRNA target element sequence (nucleic acid)
DNA: CCCAACGTGCATATCGCCATCCTCTGCTACGAGGGAATGTCATTGGTCGATGAGATGAGGGTGAATCGGATGTTGAGGTGGCACGATAGTTAAGGCGCAAGGGTAT
modifications: chemistry not fully specified; the letters are possibly those of the target site

Columns and labels:
[1] = tested on: maize tissue pools (tassel, ear, leaf, root, stem); experiment: siRNA profiling microarray assay of mts-siRNA sequences across maize tissues; details: for 01DKD2 V8-V9 Tassel relative signal value: germplasm 01DKD2, V8-V9 tassel; for 01DKD2 V10-V12 Tassel relative signal value: germplasm 01DKD2, V10-V12 tassel; for 01DKD2 Other Tissue relative signal value: germplasm 01DKD2, combined signals from other tissue; for LH244 V8-V9 Tassel relative signal value: germplasm LH244, V8-V9 tassel; for LH244 V10-V12 Tassel relative signal value: germplasm LH244, V10-V12 tassel; for LH244 Other Tissue relative signal value: germplasm LH244, combined signals from other tissue
Outline: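 Total RNA from LH244 or 01DKD2 inbred maize tissue pools hybridized to microfluidic chips with triplicate complementary probes for 1,200 mts-siRNAs. Signals background-subtracted and normalized, reported as relative values with standard error. Differential expression by t-test, p<0.05.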

[2] = tested on: transgenic maize R0 plants (double copy events); experiment: R0 plant greenhouse glyphosate spray: vegetative tolerance and induced male sterility; format: in vivo; details: for % Vegetative Tolerant / % Completely Male-sterile / % No Pollen: vector configuration A; for % Vegetative Tolerant: glyphosate 0.75 lb ae/acre at V5 then V8, <=10% injury 7 days after V5 spray; for % Completely Male-sterile: no anther extrusion up to S90+12 after V8 glyphosate; for % No Pollen: no viable pollen by Alexandar staining
Description: Transformation vectors containing the recombinant DNA constructs were used with an Agrobacterium-based transformation method and maize immature embryos and techniques known in the art. Leaf samples of R0 plants were collected and molecular analysis was conducted to select transgenic plants containing a single copy (one insertion) or a double copy (two independent insertions) of the recombinant DNA construct and no presence of vector backbone. Single copy events were not sprayed with glyphosate and were selfed and advanced for R1 seed collection, while double copy events were used for R0 glyphosate spray to assess vegetative tolerance and induced male sterility. Transgenic plants that were not sprayed with glyphosate had normal anthesis, normal pollen shedding, and normal pollen development as determined by Alexandar staining and microscopic observation.
Double copy R0 events were used in testing to approximate a single copy homozygous event. Plants were sprayed with glyphosate at two different growth stages to determine if the presence of the mts-siRNA target element in the recombinant DNA construct provided vegetative glyphosate tolerance and glyphosate-induced tassel sterility. The plants were sprayed in a greenhouse with 1× glyphosate (0.75 lb ae/acre) applied at the V5 stage followed by 1× glyphosate (0.75 lb ae/acre) applied at the V8 stage. Seven days after the V5 stage glyphosate application, plants were scored for vegetative injury with scores of ≦10% injury considered as showing vegetative glyphosate tolerance (% Vegetative Tolerant). Male sterility was measured in two ways. […] Anthers were then collected and dissected to microscopically observe pollen development. Anthers for each event were tested for no viable pollen grains produced as detected by Alexandar staining under microscopic observation and scored as not producing any viable pollen (% No Pollen). In plants not sprayed with glyphosate, tassel development, anther extrusion, and pollen development were normal.
The mts-siRNA target elements were tested in multiple transformation vector configurations. Each transformation vector was used to produce multiple R0 plants with each R0 plant representing a unique transgenic event made using the same transformation vector. Data for three different transformation vector configurations are provided as Tables 11 and 12.

Row | Molecule | 01DKD2 V8-V9 Tassel relative signal value [1] | 01DKD2 V10-V12 Tassel relative signal value [1] | 01DKD2 Other Tissue relative signal value [1] | LH244 V8-V9 Tassel relative signal value [1] | LH244 V10-V12 Tassel relative signal value [1] | LH244 Other Tissue relative signal value [1] | % No Pollen [2] [%] | also measured
1 | SEQ ID NO: 35: mts-siRNA sequence aligning to cDNA SEQ ID NO: 18 (TAGCCACACGGTCACGTTTGGACG; expressed or natural sequence) | 4 | 519 | 2.8 | 437 | 117.7 | 1.6 | – | –
2 | SEQ ID NO: 56: mts-siRNA sequence aligning to cDNA SEQ ID NO: 20 (TACACAGTGTCGTCCTCTTCGT; expressed or natural sequence) | 138.5 | 599.5 | 19.3 | 261 | 692 | 49.5 | – | –
3 | SEQ ID NO: 29: mts-siRNA sequence aligning to cDNA SEQ ID NO: 17 (CCGTGCATGGTGATGAATCC; expressed or natural sequence) | 86 | 535.5 | 4 | 292.5 | 886.7 | 2.2 | – | –
4 | SEQ ID NO: 75: mts-siRNA sequence aligning to cDNA SEQ ID NO: 22 (ACAGTGACTCACCAGTGCATGCAC; expressed or natural sequence) | 3 | 257 | 5 | 53 | 237.3 | 3.3 | – | –
5 | SEQ ID NO: 54: mts-siRNA sequence aligning to cDNA SEQ ID NO: 20 (CATCGTCGTGCAGCTGGT; expressed or natural sequence) | 56 | 231 | 19.5 | 100.5 | 172 | 14.2 | – | –
6 | SEQ ID NO: 81: mts-siRNA sequence aligning to cDNA SEQ ID NO: 22 (ACCATCAACGACTACAACGGTGAA; expressed or natural sequence) | 1 | 320 | 0 | 207 | 470.3 | 1.6 | – | –
7 | SEQ ID NO: 23: mts-siRNA sequence aligning to cDNA SEQ ID NO: 17 (CATCACCATGCACGGTCGTCGT; expressed or natural sequence) | 27 | 318 | 4.3 | 183.5 | 514 | 2.6 | – | –
8 | SEQ ID NO: 87: mts-siRNA sequence aligning to cDNA SEQ ID NO: 22 (ACCAAGGATGTCGTCACCACCAAT; expressed or natural sequence) | 25 | 91.5 | 2.5 | 56 | 104 | 4.7 | – | –
9 | SEQ ID NO: 83: mts-siRNA sequence aligning to cDNA SEQ ID NO: 22 (CAAGGCAAGAAGGTGCTT; expressed or natural sequence) | 2 | 253.5 | 1.5 | 173 | 303 | 2.5 | – | –
10 | B1 | – | – | – | – | – | – | 0 | % Vegetative Tolerant ([2]; listed as 15): 90%; % Completely Male-sterile [2]: none; % Completely Male-sterile ([2]; listed as 15): 0%
11 | B2 | – | – | – | – | – | – | 0 | % Vegetative Tolerant ([2]; listed as 9): 100%; % Completely Male-sterile ([2]; listed as 9): 40%
12 | B3 | – | – | – | – | – | – | 0 | % Vegetative Tolerant [2]: 80%; % Completely Male-sterile [2]: 50%
13 | B4 | – | – | – | – | – | – | 0 | % Vegetative Tolerant ([2]; listed as 13): 100%; % Completely Male-sterile [2]: none; % Completely Male-sterile ([2]; listed as 13): 0%
14 | B5 | – | – | – | – | – | – | 82 | tassel male sterility and pollen by Alexandar stain ([2]; double copy R0 events with SEQ ID NO: 2, glyphosate 0.75 lb ae/acre at V5 then V8): very few aborted pollen grains or no pollen grains were detected; % Vegetative Tolerant ([2]; listed as 2): 100%; % Completely Male-sterile ([2]; listed as 2): 82%
15 | B6 | – | – | – | – | – | – | 0 | % Vegetative Tolerant ([2]; listed as 14): 90%; % Completely Male-sterile [2]: none; % Completely Male-sterile ([2]; listed as 14): 0%
